In patent US20260248761A1, “COMPOSITIONS AND METHODS FOR TREATMENT OF PULMONARY HYPERTENSION” (EpicentRx, Inc., priority 2022, published 2026):
“And” between values parts separate entries of the source, which are not always exact repeats. Equal entries are not always repeated. Where two headings read alike, the source gives them in different places.

Assays:
male Wistar rats [1] = assay type: in vivo, rat; conditions: FIG. 5A, hypoxia 1 week
Procedure: (§1) Male Wistar rats were kept in an isobaric hypoxic chamber with intermittent hypoxia (FiO2=10%) for (1) week (6 hours/day, 6 day/week). […] For administration, the RRx-001 (10 mg/kg) was mixed with blood and injected via the tail at the beginning of hypoxia exposure every day. […] Untreated control animals were not administered any agents and the SHAM (Control) group was not subjected to hypoxia.
Mean pulmonary pressure (mPAP) was recorded using a catheter introduced in the right jugular vein and passed across the tricuspid valve and right ventricle into the pulmonary artery.

male Wistar rats [2] = assay: H&E staining of the pulmonary arteriole (pulmonary vascular remodeling); assay type: in vivo, rat; conditions: FIG. 10, hypoxia induced PAH rats
Description: FIG. 10 depicts the effect of the RRx-001 and Bosentan on pulmonary vascular remodeling. Specifically, FIG. 10 depicts images showing H&E staining in the pulmonary arteriole.

male Wistar rats [3] = assay type: in vivo, rat
Procedure: To measure the wet weight ratio, the heart was excised, the atria were removed, and the wall of the right ventrical (RV) was separated from the heart. Tissues were blotted and weighed.
as §1
The wet weight ratio is an indicator of right ventricle hypertrophy. The wet weight ratios were measured according to the same procedure as set out in the description for FIG. 2.

male Wistar rats [4] = assay: Mean pulmonary artery pressure (mPAP) by catheter, intermittent hypoxia PAH study; assay type: in vivo, rat; conditions: FIG. 1A, intermittent hypoxia FiO2 10%, RRx-001 5 mg/kg or Bosentan 50 mg/kg mixed with blood, tail injection; for mPAP, lower value of group distribution: PAH group 27, control 16; for mPAP, median value of group distribution: PAH group 30, control 17, RRx-001 p<0.05 vs PAH; for mPAP, upper value of group distribution: PAH group 33, control 20
Procedure: (§2) The study exposed 18 male Wistar rats to an isobaric chamber with intermittent hypoxia where the fraction of inspired oxygen (FiO2) is 10%.
The mPAP was recorded in FIG. 1A using a catheter introduced into the right jugular vein of the male Wistar rats and passed across the tricuspid valve and a right ventricle into the pulmonary artery. A distribution of the mPAP results for the various groups is plotted in FIG. 1A.

male Wistar rats [5] = assay: Mean aortic pressure (mAP) by arterial catheter, intermittent hypoxia PAH study; assay type: in vivo, rat; conditions: FIG. 1B, RRx-001 5 mg/kg or Bosentan 50 mg/kg mixed with blood; for mAP, lower value of group distribution: PAH group 117, control 98; for mAP, median value of group distribution: PAH group 137, control 113, RRx-001 p<0.05 vs PAH; for mAP, upper value of group distribution: PAH group 147, control 116
Procedure: as §2
The second graph, FIG. 1B, is a distribution of mean aortic pressure (mAP) that was recorded by an arterial catheter inserted via the carotid artery of the male Wistar rats. The PAH group distribution has an upper value for mAP of approximately 147 mmHg, a median value for the mAP of approximately 137 mmHg, and a lower value for the mAP of approximately 117 mmHg. The RRx-001 group has an upper value for the mAP of approximately 134 mmHg, a median value for the mAP of approximately 121 mmHg, and a lower value for the mAP of approximately 116 mmHg. The p value as determined for the mAP results between the PAH group and the RRx-001 group is less than 0.05.

Wistar rats = conditions: FIG. 9, blood
male Wistar rats [6] = assay: Lung morphological changes: relative medial wall thickness and area, hypoxia PAH study; assay type: in vivo, rat; conditions: RRx-001 5 mg/kg or Bosentan 50 mg/kg mixed with blood; for medial wall thickness relative to external diameter, lower value / medial wall thickness relative to external diameter, median value / medial wall thickness relative to external diameter, upper value: FIG. 4A; for medial wall thickness relative to external diameter, lower value: PAH group 0.13, control 0.07; for medial wall thickness relative to external diameter, median value: PAH group 0.14, control 0.07; for medial wall thickness relative to external diameter, upper value: PAH group 0.15, control 0.08; for medial wall area relative to lumen area, lower value / medial wall area relative to lumen area, median value / medial wall area relative to lumen area, upper value: FIG. 4B; for medial wall area relative to lumen area, lower value: PAH group 0.16, control 0.11; for medial wall area relative to lumen area, median value: PAH group 0.17, control 0.12; for medial wall area relative to lumen area, upper value: PAH group 0.21, control 0.14
Procedure: To collect the data, male Wistar rats lungs were removed and fixed in paraformaldehyde, then dehydrated and embedded in paraffin for sectioning. The relative medial thickness and relative medial areas were calculated from vessels showing a clearly defined external and internal elastic lamina.

male Wistar rats [7] = assay: Wet weight ratio (Fulton index) RV/(LV+SP), right ventricular hypertrophy, hypoxia PAH study; assay type: in vivo, rat; conditions: FIG. 2, RRx-001 5 mg/kg or Bosentan 50 mg/kg mixed with blood; for wet weight ratio RV/(LV+SP), lower value: PAH group 0.38, control 0.28; for wet weight ratio RV/(LV+SP), median value: PAH group 0.43, control 0.31; for wet weight ratio RV/(LV+SP), upper value: PAH group 0.44, control 0.33
Description: A distribution of the collected data is plotted on the graph for the 4 groups of male Wistar rats: the control group, the PAH group, the RRx-001 group, and the Bosentan group. The calculated wet weight ratio is intended to be an indicator of right ventricular hypertrophy.
To measure the wet weight ratio, the heart was excised, the atria were removed, and the wall of the right ventrical (RV) was separated from the heart. Tissues were blotted and weighed. […] The elevated pulmonary arterial pressure was paralleled by an increase in systolic pressure, and right ventricular hypertrophy according to the Fulton index.

male Wistar rats [8] = assay: Echocardiograph: ejection fraction and fractional shortening, hypoxia PAH study; conditions: RRx-001 5 mg/kg or Bosentan 50 mg/kg mixed with blood; for ejection fraction, lower value / ejection fraction, median value / ejection fraction, upper value: FIG. 3A; for ejection fraction, lower value: PAH group 49%, control 65%; for ejection fraction, median value: PAH group 51%, control 68%; for ejection fraction, median value / fractional shortening, median value: RRx-001 p<0.05 vs PAH; for ejection fraction, upper value: PAH group 59%, control 72%; for fractional shortening, median value / fractional shortening, upper value: FIG. 3B; for fractional shortening, median value: PAH group 31%, control 42%; for fractional shortening, upper value: PAH group 33%, control 44%
Procedure: The male Wistar rats exposed to hypoxia were then divided into 3 groups for the study. A first group of 6 male Wistar rats were untreated and labeled “PAH”. A second group of 6 male Wistar rats were treated with the RRx-001. A third group of 6 male Wistar rats were treated with Bosentan, which is a drug that is used to treat PAH.
Treatment for the second group of male Wistar rats comprised mixing 5 mg/kg RRx-001 with blood and administering the mixture via tail injection before the hypoxia exposure. Similarly, treatment for the third group of male Wistar rats comprised mixing 50 mg/kg Bosentan with blood and administering the mixture daily via tail injection before the hypoxia exposure.

male Wistar rats [9] = assay type: in vivo, rat; remark: listed apart in the source
Procedure: as §1
Mean aortic pressure (mAP) was recorded by an arterial catheter inserted via the carotid artery.

Row | SMILES | mPAP, lower value of group distribution (male Wistar rats [4]) | mPAP, median value of group distribution (male Wistar rats [4]) | mPAP, upper value of group distribution (male Wistar rats [4]) | mAP, lower value of group distribution (male Wistar rats [5]) | mAP, median value of group distribution (male Wistar rats [5]) | mAP, upper value of group distribution (male Wistar rats [5]) | medial wall thickness relative to external diameter, lower value (male Wistar rats [6]) | medial wall thickness relative to external diameter, median value (male Wistar rats [6]) | medial wall thickness relative to external diameter, upper value (male Wistar rats [6]) | medial wall area relative to lumen area, lower value (male Wistar rats [6]) | medial wall area relative to lumen area, median value (male Wistar rats [6]) | medial wall area relative to lumen area, upper value (male Wistar rats [6]) | wet weight ratio RV/(LV+SP), lower value (male Wistar rats [7]) | wet weight ratio RV/(LV+SP), median value (male Wistar rats [7]) | wet weight ratio RV/(LV+SP), upper value (male Wistar rats [7]) | ejection fraction, lower value (male Wistar rats [8]) | ejection fraction, median value (male Wistar rats [8]) | ejection fraction, upper value (male Wistar rats [8]) | fractional shortening, median value (male Wistar rats [8]) | fractional shortening, upper value (male Wistar rats [8]) | further results
1 | O=C(CBr)N1CC([N+](=O)[O-])([N+](=O)[O-])C1 [RRx-001, 2-bromo-1-(3,3-dinitroazetidin-1-yl) ethan-1-one] | approximately 23 mmHg | approximately 26 mmHg | approximately 28 mmHg | approximately 116 mmHg | approximately 121 mmHg | approximately 134 mmHg | approximately 0.07 | approximately 0.08 | approximately 0.09 | approximately 0.14 | approximately 0.14 | approximately 0.16 | approximately 0.34 | approximately 0.35 | approximately 0.39 | approximately 60% | approximately 66% | approximately 69% | approximately 38% | approximately 39% | median mPAP (male Wistar rats [1]; RRx-001 10 mg/kg + nitrite (NaNO2) 10 mg/kg s.c.): ~18 mmHg; median mPAP (male Wistar rats [1]; RRx-001 10 mg/kg + nitrite (NaNO2) 20 mg/kg s.c.): ~16 mmHg; median mPAP (male Wistar rats [1]; RRx-001 10 mg/kg + nitrite (NaNO2) 40 mg/kg s.c.): ~15 mmHg; median mPAP (male Wistar rats [1]; RRx-001 10 mg/kg mixed with blood daily, nitrite 0, saline/0 nitrite 23, control 20, SHAM 17): approximately 17 mmHg; increases in pulmonary vascular wall thickness and muscularization of the pulmonary arteriole (male Wistar rats [2]): inhibited; median wet weight ratio RV/(LV+SP) (male Wistar rats [3]; FIG. 7/8, hypoxia 1 week, RRx-001 10 mg/kg + nitrite 10 mg/kg): approximately 0.40 mg/mg; median wet weight ratio RV/(LV+SP) (male Wistar rats [3]; FIG. 7/8, hypoxia 1 week, RRx-001 10 mg/kg + nitrite 20 mg/kg): ~0.35 mg/mg; median wet weight ratio RV/(LV+SP) (male Wistar rats [3]; FIG. 7/8, hypoxia 1 week, RRx-001 10 mg/kg + nitrite 40 mg/kg): ~0.32 mg/mg; effect on right ventricle hypertrophy (wet weight ratio) (male Wistar rats [3]; FIG. 7/8, hypoxia study with nitrite, result in words): has an effect on right ventricle hypertrophy; median wet weight ratio RV/(LV+SP) (male Wistar rats [3]; rat, in vivo, 10 mg/kg): approximately 0.37 mg/mg; median metHb concentration (Wistar rats; RRx-001 10 mg/kg + nitrite 10 mg/kg): ~3%; median metHb concentration (Wistar rats; RRx-001 10 mg/kg + nitrite 20 mg/kg): ~7%; median metHb concentration (Wistar rats; RRx-001 10 mg/kg + nitrite 40 mg/kg): ~12%; median metHb concentration (Wistar rats; RRx-001 10 mg/kg, nitrite 0, saline/0 nitrite and controls 1%): approximately 1%; median mAP (male Wistar rats [9]; FIG. 5B, hypoxia 1 week, RRx-001 10 mg/kg + nitrite 10 mg/kg s.c.): ~115 mmHg; median mAP (male Wistar rats [9]; FIG. 5B, hypoxia 1 week, RRx-001 10 mg/kg + nitrite 20 mg/kg s.c.): ~107 mmHg; median mAP (male Wistar rats [9]; FIG. 5B, hypoxia 1 week, RRx-001 10 mg/kg + nitrite 40 mg/kg s.c.): ~102 mmHg; median mAP (male Wistar rats [9]; FIG. 5B, hypoxia 1 week, RRx-001 10 mg/kg mixed with blood daily, nitrite 0, saline/0 nitrite 137, control 124, SHAM 109): approximately 116 mmHg
2 | O=NO [nitrite, reference compound] |  |  |  |  |  |  |  |  |  |  |  |  |  |  |  |  |  |  |  |  | effect of nitrite on mAP versus mPAP (male Wistar rats [9]; rat, in vivo): systemic effect on mAP but less significant on mPAP; median mAP (male Wistar rats [9]; rat, in vivo): ~122 mmHg and ~126 mmHg and ~120 mmHg
3 | COc1ccccc1Oc1c(NS(=O)(=O)c2ccc(C(C)(C)C)cc2)nc(-c2ncccn2)nc1OCCO [Bosentan, reference compound] | approximately 21 mmHg | approximately 22 mmHg | approximately 24 mmHg | approximately 108 mmHg | approximately 120 mmHg | approximately 126 mmHg | approximately 0.09 | approximately 0.10 | approximately 0.12 | approximately 0.14 | approximately 0.16 | approximately 0.17 | approximately 0.32 | approximately 0.35 | approximately 0.39 | approximately 52% | approximately 59% | approximately 63% | approximately 38% | approximately 42% | 
